Laboratory results from patent US12077503B2, “Substituted cyclic amides and their use as herbicides” (FMC CORPORATION, priority 2015, dated 2024).

Legend:
Assay in all cases: Test C preemergence
Format in all cases: in vivo
[1] = system: ryegrass, Italian (Italian ryegrass, Lolium multiflorum); details: for Plant response rating, Ryegrass, Italian: scale 0 to 100, 0 no effect, 100 complete control
Method in brief: (§1)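 Seeds in loam-sand soil treated preemergence, or plants in peat-based medium sprayed postemergence at 2–18 cm (1- to 4-leaf stage), with compound in a non-phytotoxic solvent mixture containing surfactant. Greenhouse-held 13–15 d, then visually rated against controls on a 0–100 scale (0 = no effect, 100 = complete control); dash = not tested.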

[2] = system: corn (Zea mays); details: for Plant response rating, Corn: scale 0 to 100, 0 no effect, 100 complete control
Method in brief: as §1

[3] = system: ragweed (common ragweed, Ambrosia elatior); details: for Plant response rating, Ragweed: scale 0 to 100, 0 no effect, 100 complete control
Method in brief: as §1

[4] = system: morningglory (Ipomoea coccinea); details: for Plant response rating, Morningglory: scale 0 to 100, 0 no effect, 100 complete control
Method in brief: as §1

[5] = system: pigweed (Amaranthus retroflexus); details: for Plant response rating, Pigweed: scale 0 to 100, 0 no effect, 100 complete control
Method in brief: as §1

[6] = system: nutsedge, yellow (yellow nutsedge, Cyperus esculentus); details: for Plant response rating, Nutsedge, Yellow: scale 0 to 100, 0 no effect, 100 complete control
Method in brief: as §1

[7] = system: oilseed rape (Brassica napus); details: for Plant response rating, Oilseed Rape: scale 0 to 100, 0 no effect, 100 complete control
Method in brief: as §1

[8] = system: wheat (winter wheat, Triticum aestivum); details: for Plant response rating, Wheat: scale 0 to 100, 0 no effect, 100 complete control
Method in brief: as §1

[9] = system: foxtail, giant (giant foxtail, Setaria faberii); details: for Plant response rating, Foxtail, Giant: scale 0 to 100, 0 no effect, 100 complete control
Method in brief: as §1

[10] = system: barnyardgrass (Echinochloa crus-galli); details: for Plant response rating, Barnyardgrass: scale 0 to 100, 0 no effect, 100 complete control
Method in brief: as §1

[11] = system: Galium (catchweed bedstraw, Galium aparine); details: for Plant response rating, Galium: scale 0 to 100, 0 no effect, 100 complete control
Method in brief: as §1

[12] = system: velvetleaf (Abutilon theophrasti); details: for Plant response rating, Velvetleaf: scale 0 to 100, 0 no effect, 100 complete control
Method in brief: as §1

[13] = system: johnsongrass (Sorghum halepense); details: for Plant response rating, Johnsongrass: scale 0 to 100, 0 no effect, 100 complete control
Method in brief: as §1

[14] = system: soybean (Glycine max); details: for Plant response rating, Soybean: scale 0 to 100, 0 no effect, 100 complete control
Method in brief: as §1

[15] = system: crabgrass, large (large crabgrass, Digitaria sanguinalis); details: for Plant response rating, Crabgrass, Large: scale 0 to 100, 0 no effect, 100 complete control
Method in brief: as §1

[16] = system: blackgrass (Alopecurus myosuroides); details: for Plant response rating, Blackgrass: scale 0 to 100, 0 no effect, 100 complete control
Method in brief: as §1

[17] = system: lambsquarters (Chenopodium album); details: for Plant response rating, Lambsquarters: scale 0 to 100, 0 no effect, 100 complete control
Method in brief: as §1

[18] = system: waterhemp (common waterhemp, Amaranthus rudis); details: for Plant response rating, Waterhemp: scale 0 to 100, 0 no effect, 100 complete control
Method in brief: as §1

[19] = 31 g ai/ha, 0 is no effect, 100 is complete control

## O=C1NCC(c2cccc(C(F)(F)F)c2F)C1C(=O)Nc1cccc(F)c1F (stereo not drawn) [Compound 591]
[1]; [19]
  Plant response rating (scale of 0 to 100), Ryegrass, Italian: 0
[1]; 62 g ai/ha
  Plant response rating, Ryegrass, Italian: 10
[1]; 125 g ai/ha
  Plant response rating, Ryegrass, Italian: 35
[1]; 250 g ai/ha
  Plant response rating, Ryegrass, Italian: 75
[2]; [19]
  Plant response rating (scale of 0 to 100), Corn: 45
[2]; 62 g ai/ha
  Plant response rating, Corn: 70
[2]; 125 g ai/ha
  Plant response rating, Corn: 60
[2]; 250 g ai/ha
  Plant response rating, Corn: 80
[3]; [19]
  Plant response rating (scale of 0 to 100), Ragweed: 0
[3]; 62 g ai/ha
  Plant response rating, Ragweed: 20
[3]; 125 g ai/ha
  Plant response rating, Ragweed: 35
[3]; 250 g ai/ha
  Plant response rating, Ragweed: 70
[4]; [19]
  Plant response rating (scale of 0 to 100), Morningglory: 10
[4]; 62 g ai/ha
  Plant response rating, Morningglory: 30
[4]; 125 g ai/ha
  Plant response rating, Morningglory: 40
[4]; 250 g ai/ha
  Plant response rating, Morningglory: 65
[5]; [19]
  Plant response rating (scale of 0 to 100), Pigweed: 10
[5]; 62 g ai/ha
  Plant response rating, Pigweed: 45
[5]; 125 g ai/ha
  Plant response rating, Pigweed: 60
[5]; 250 g ai/ha
  Plant response rating, Pigweed: 75
[6]; [19]
  Plant response rating (scale of 0 to 100), Nutsedge, Yellow: 0
[6]; 62 g ai/ha
  Plant response rating, Nutsedge, Yellow: 0
[6]; 125 g ai/ha
  Plant response rating, Nutsedge, Yellow: 0
[6]; 250 g ai/ha
  Plant response rating, Nutsedge, Yellow: 0
[7]; [19]
  Plant response rating (scale of 0 to 100), Oilseed Rape: 5
[7]; 62 g ai/ha
  Plant response rating, Oilseed Rape: 20
[7]; 125 g ai/ha
  Plant response rating, Oilseed Rape: 30
[7]; 250 g ai/ha
  Plant response rating, Oilseed Rape: 85
[8]; [19]
  Plant response rating (scale of 0 to 100), Wheat: 0
[8]; 62 g ai/ha
  Plant response rating, Wheat: 10
[8]; 125 g ai/ha
  Plant response rating, Wheat: 30
[8]; 250 g ai/ha
  Plant response rating, Wheat: 70
[9]; [19]
  Plant response rating (scale of 0 to 100), Foxtail, Giant: 85
[9]; 62 g ai/ha
  Plant response rating, Foxtail, Giant: 90
[9]; 125 g ai/ha
  Plant response rating, Foxtail, Giant: 90
[9]; 250 g ai/ha
  Plant response rating, Foxtail, Giant: 95
[10]; [19]
  Plant response rating (scale of 0 to 100), Barnyardgrass: 90
[10]; 62 g ai/ha
  Plant response rating, Barnyardgrass: 90
[10]; 125 g ai/ha
  Plant response rating, Barnyardgrass: 95
[10]; 250 g ai/ha
  Plant response rating, Barnyardgrass: 95
[11]; [19]
  Plant response rating (scale of 0 to 100), Galium: 5
[11]; 62 g ai/ha
  Plant response rating, Galium: 50
[11]; 125 g ai/ha
  Plant response rating, Galium: 50
[11]; 250 g ai/ha
  Plant response rating, Galium: 80
[12]; [19]
  Plant response rating (scale of 0 to 100), Velvetleaf: 0
[12]; 62 g ai/ha
  Plant response rating, Velvetleaf: 0
[12]; 125 g ai/ha
  Plant response rating, Velvetleaf: 20
[12]; 250 g ai/ha
  Plant response rating, Velvetleaf: 20
[13]; [19]
  Plant response rating (scale of 0 to 100), Johnsongrass: 35
[13]; 62 g ai/ha
  Plant response rating, Johnsongrass: 55
[13]; 125 g ai/ha
  Plant response rating, Johnsongrass: 75
[13]; 250 g ai/ha
  Plant response rating, Johnsongrass: 85
[14]; [19]
  Plant response rating (scale of 0 to 100), Soybean: 0
[14]; 62 g ai/ha
  Plant response rating, Soybean: 0
[14]; 125 g ai/ha
  Plant response rating, Soybean: 0
[14]; 250 g ai/ha
  Plant response rating, Soybean: 0
[15]; [19]
  Plant response rating (scale of 0 to 100), Crabgrass, Large: 90
[15]; 62 g ai/ha
  Plant response rating, Crabgrass, Large: 90
[15]; 125 g ai/ha
  Plant response rating, Crabgrass, Large: 90
[15]; 250 g ai/ha
  Plant response rating, Crabgrass, Large: 95
[16]; [19]
  Plant response rating (scale of 0 to 100), Blackgrass: 30
[16]; 62 g ai/ha
  Plant response rating, Blackgrass: 85
[16]; 125 g ai/ha
  Plant response rating, Blackgrass: 90
[16]; 250 g ai/ha
  Plant response rating, Blackgrass: 90
[17]; [19]
  Plant response rating (scale of 0 to 100), Lambsquarters: 10
[17]; 62 g ai/ha
  Plant response rating, Lambsquarters: 20
[17]; 125 g ai/ha
  Plant response rating, Lambsquarters: 35
[17]; 250 g ai/ha
  Plant response rating, Lambsquarters: 70
[18]; [19]
  Plant response rating (scale of 0 to 100), Waterhemp: 5
[18]; 62 g ai/ha
  Plant response rating, Waterhemp: 30
[18]; 125 g ai/ha
  Plant response rating, Waterhemp: 65
[18]; 250 g ai/ha
  Plant response rating, Waterhemp: 70
